Reference: patent publication US10954269B2, “Anti-inflammatory tripeptides” (Dr. August Wolff Gmbh & Co. KG Arzneimittel, priority 2013, dated 2021)

Columns and labels:
Details in all cases: substance 10^−9M
[1] = tested on: primary murine T-cells; assay: Cytokine secretion on protein level in activated primary murine T-cells (13-plex FACS / Luminex, supernatant); type: cell-based, C57BL/6 mice
Method: (§1) Primary T-cells were isolated from peripheral blood from healthy volunteers and from secondary lymphatic organs from naïve C57BL/6 mice, respectively. The cells were stimulated with phorbol-12-myristate-13-acetate (PMA)/Ionomycin and interferon-gamma (IFN-γ), respectively, for 48 h to activate the cells. The activated cells release pro-inflammatory cytokines. In parallel a human (HaCaT) keratinocyte cell line was activated with PMA/Ionomycin and IFN-γ, respectively, too. […] At the same time release of anti-inflammatory IL-10 was inhibited. Two days after addition of PMA/Ionomycin and IFN-γ, respectively, the induction of IL-1 secretion was determined in the supernatant for proving that the cells are activated. […] The anti-inflammatory properties of the tripeptides were determined 48 h and 72 h following stimulation. A 13-plex-system based FACS analysis was used for showing the reduced secretion of pro-inflammatory cytokines in the supernatant. Data for IL-1, IL-2, IL-6, IL-12p70 IL-17, IFN-γ and TNF-α are considered to be most relevant. Thus, analysis of the anti-inflammatory properties of the tripeptides is preferably based on the results obtained for these analytes. […] Using this method the gene expression of pro-inflammatory markers like IL-6, IL-17, IFN-γ and TNF-α was determined.
In a third experiment murine and human T cells and HaCaT cells were stimulated with PMA/Ionomycin and treated with Examples 14, 15, 16 and 17 at 10^−7 M, 10^−9 M and 10^−11 M. Cytokine concentrations (IFN-γ, IL-17 and IL-10 for T cells and IFN-γ for HaCat) were assessed in the supernatants using the Luminex technology. Expression of genes coding for Il-1β, IL-6 and TNF-α was determined. […] Moreover, concentrations of pro-inflammatory cytokines IFN-γ and IL-17 was reduced in the supernatants whereas the concentration of anti-inflammatory cytokine IL-10 was increased.
The anti-inflammatory and immunomodulatory effects of selected examples of the present invention were compared with common immunosuppressants. Thus, cells activated with PMA/Ionomycin and IFN-γ, respectively, were stimulated with MMF or dexamethasone. Following stimulation the secretion of pro-inflammatory cytokines was analyzed on protein and gene level (Table 9 and FIGS. 4-6).

[2] = tested on: primary human T-cells; assay: Cytokine secretion on protein level in activated primary human T-cells (13-plex FACS / Luminex, supernatant); type: cell-based
Method: as §1
(§2) In a third experiment murine and human T cells and HaCaT cells were stimulated with PMA/Ionomycin and treated with Examples 14, 15, 16 and 17 at 10^−7 M, 10^−9 M and 10^−11 M. Cytokine concentrations (IFN-γ, IL-17 and IL-10 for T cells and IFN-γ for HaCat) were assessed in the supernatants using the Luminex technology. Expression of genes coding for Il-1β, IL-6 and TNF-α was determined. […] Moreover, concentrations of pro-inflammatory cytokines IFN-γ and IL-17 was reduced in the supernatants whereas the concentration of anti-inflammatory cytokine IL-10 was increased. […]
(§3) For the biological assay two human cell lines of different origin were chosen to allow for translation of the results obtained. A HaCaT cell is a cell type belonging to an immortal human keratinocyte line used in scientific research. Its use in research allows for the characterization of human keratinocyte using a model that is reproducible and representing a human epithelial cell line. In contrast human T-lymphocytes (T-cells) are a type of lymphocyte (itself a type of white blood cell) that play a central role in cell-mediated inflammation/immunity.

[3] = tested on: human keratinocyte cell line (HaCaT); assay: Cytokine secretion on protein level in activated human keratinocyte cell line HaCaT (13-plex FACS / Luminex, supernatant); type: cell-based
Method: as §1, §2, §3

[4] = primary murine T-cells stimulated with IFN-γ
[5] = primary murine T-cells stimulated with PBS
[6] = primary murine T-cells stimulated with PMA/Ionomycin
[7] = primary human T-cells stimulated with IFN-γ
[8] = primary human T-cells stimulated with PBS
[9] = primary human T-cells stimulated with PMA/Ionomycin
[10] = HaCaT stimulated with PMA/Ionomycin

C[C@@H]1C[C@H]2[C@@H]3CCC4=CC(=O)C=C[C@]4(C)[C@@]3(F)[C@@H](O)C[C@]2(C)[C@@]1(O)C(=O)CO [dexamethasone, reference compound]
IL-1 cytokine concentration [1, 4]: 64.89 pg/mL
IL-2 cytokine concentration [1, 4]: 70.49 pg/mL
IL-4 cytokine concentration [1, 4]: 61.11 pg/mL
IL-5 cytokine concentration [1, 4]: 208.28 pg/mL
IL-6 cytokine concentration [1, 4]: 108.76 pg/mL
IL-10 cytokine concentration [1, 4]: 905.55 pg/mL
IL-13 cytokine concentration [1, 4]: 0 pg/mL
IL-17 cytokine concentration [1, 4]: 52.48 pg/mL
IL-21 cytokine concentration [1, 4]: 0 pg/mL
IL-22 cytokine concentration [1, 4]: 37.13 pg/mL
IL-27 cytokine concentration [1, 4]: 21.29 pg/mL
TNF-α cytokine concentration [1, 4]: 32.32 pg/mL
IFN-γ cytokine concentration [1, 5]: 0 pg/mL
IL-1 cytokine concentration [1, 5]: 50.19 pg/mL
IL-2 cytokine concentration [1, 5]: 98.48 pg/mL
IL-4 cytokine concentration [1, 5]: 64.23 pg/mL
IL-5 cytokine concentration [1, 5]: 249.8 pg/mL
IL-6 cytokine concentration [1, 5]: 88.47 pg/mL
IL-10 cytokine concentration [1, 5]: 586.12 pg/mL
IL-13 cytokine concentration [1, 5]: 0 pg/mL
IL-17 cytokine concentration [1, 5]: 0 pg/mL
IL-21 cytokine concentration [1, 5]: 0 pg/mL
IL-22 cytokine concentration [1, 5]: 69.18 pg/mL
IL-27 cytokine concentration [1, 5]: 84.69 pg/mL
TNF-α cytokine concentration [1, 5]: 67.18 pg/mL
IFN-γ cytokine concentration [1, 6]: 1777.98 pg/mL
IL-1 cytokine concentration [1, 6]: 160.95 pg/mL
IL-2 cytokine concentration [1, 6]: 97.41 pg/mL
IL-4 cytokine concentration [1, 6]: 57.84 pg/mL
IL-5 cytokine concentration [1, 6]: 198.45 pg/mL
IL-6 cytokine concentration [1, 6]: 144.26 pg/mL
IL-10 cytokine concentration [1, 6]: 899.74 pg/mL
IL-13 cytokine concentration [1, 6]: 0 pg/mL
IL-17 cytokine concentration [1, 6]: 76.12 pg/mL
IL-21 cytokine concentration [1, 6]: 0 pg/mL
IL-22 cytokine concentration [1, 6]: 97.01 pg/mL
IL-27 cytokine concentration [1, 6]: 94.12 pg/mL
TNF-α cytokine concentration [1, 6]: 36.25 pg/mL
IL-1 cytokine concentration [2, 7]: 0 pg/mL
IL-2 cytokine concentration [2, 7]: 0 pg/mL
IL-4 cytokine concentration [2, 7]: 0 pg/mL
IL-5 cytokine concentration [2, 7]: 0 pg/mL
IL-6 cytokine concentration [2, 7]: 56.47 pg/mL
IL-9 cytokine concentration [2, 7]: 0 pg/mL
IL-10 cytokine concentration [2, 7]: 0 pg/mL
IL-12 cytokine concentration [2, 7]: 0 pg/mL
IL-13 cytokine concentration [2, 7]: 0 pg/mL
IL-17 cytokine concentration [2, 7]: 0 pg/mL
IL-22 cytokine concentration [2, 7]: 0 pg/mL
TNF-α cytokine concentration [2, 7]: 0 pg/mL
IFN-γ cytokine concentration [2, 8]: 0 pg/mL
IL-1 cytokine concentration [2, 8]: 0 pg/mL
IL-2 cytokine concentration [2, 8]: 0 pg/mL
IL-4 cytokine concentration [2, 8]: 0 pg/mL
IL-5 cytokine concentration [2, 8]: 0 pg/mL
IL-6 cytokine concentration [2, 8]: 80.63 pg/mL
IL-9 cytokine concentration [2, 8]: 13.05 pg/mL
IL-10 cytokine concentration [2, 8]: 45.66 pg/mL
IL-12 cytokine concentration [2, 8]: 0 pg/mL
IL-13 cytokine concentration [2, 8]: 55.12 pg/mL
IL-17 cytokine concentration [2, 8]: 69.45 pg/mL
IL-22 cytokine concentration [2, 8]: 0 pg/mL
TNF-a cytokine concentration [2, 8]: 41.45 pg/mL
IFN-γ cytokine concentration [2, 9]: 888.61 pg/mL
IL-1 cytokine concentration [2, 9]: 448.69 pg/mL
IL-2 cytokine concentration [2, 9]: 2198.45 pg/mL
IL-4 cytokine concentration [2, 9]: 79.02 pg/mL
IL-5 cytokine concentration [2, 9]: 297.13 pg/mL
IL-6 cytokine concentration [2, 9]: 1078.6 pg/mL
IL-9 cytokine concentration [2, 9]: 392.74 pg/mL
IL-10 cytokine concentration [2, 9]: 799.85 pg/mL
IL-12 cytokine concentration [2, 9]: 0 pg/mL
IL-13 cytokine concentration [2, 9]: 1099.59 pg/mL
IL-17 cytokine concentration [2, 9]: 1134.18 pg/mL
IL-22 cytokine concentration [2, 9]: 0 pg/mL
TNF-a cytokine concentration [2, 9]: 3264.56 pg/mL
IL-1 cytokine concentration ([3]; HaCaT stimulated with IFN-γ): 0 pg/mL
IL-2 cytokine concentration ([3]; HaCaT stimulated with IFN-γ): 0 pg/mL
IL-4 cytokine concentration ([3]; HaCaT stimulated with IFN-γ): 39.78 pg/mL
IL-5 cytokine concentration ([3]; HaCaT stimulated with IFN-γ): 0 pg/mL
IL-6 cytokine concentration ([3]; HaCaT stimulated with IFN-γ): 204.99 pg/mL
IL-9 cytokine concentration ([3]; HaCaT stimulated with IFN-γ): 0 pg/mL
IL-10 cytokine concentration ([3]; HaCaT stimulated with IFN-γ): 0 pg/mL
IL-12 cytokine concentration ([3]; HaCaT stimulated with IFN-γ): 0 pg/mL
IL-13 cytokine concentration ([3]; HaCaT stimulated with IFN-γ): 0 pg/mL
IL-17 cytokine concentration ([3]; HaCaT stimulated with IFN-γ): 69.14 pg/mL
IL-22 cytokine concentration ([3]; HaCaT stimulated with IFN-γ): 0 pg/mL
TNF-α cytokine concentration ([3]; HaCaT stimulated with IFN-γ): 0 pg/mL
IFN-γ cytokine concentration ([3]; HaCaT stimulated with PBS): 12.98 pg/mL
IL-1 cytokine concentration ([3]; HaCaT stimulated with PBS): 0 pg/mL
IL-2 cytokine concentration ([3]; HaCaT stimulated with PBS): 0 pg/mL
IL-4 cytokine concentration ([3]; HaCaT stimulated with PBS): 133.98 pg/mL
IL-5 cytokine concentration ([3]; HaCaT stimulated with PBS): 0 pg/mL
IL-6 cytokine concentration ([3]; HaCaT stimulated with PBS): 44.79 pg/mL
IL-9 cytokine concentration ([3]; HaCaT stimulated with PBS): 0 pg/mL
IL-10 cytokine concentration ([3]; HaCaT stimulated with PBS): 30.89 pg/mL
IL-12 cytokine concentration ([3]; HaCaT stimulated with PBS): 0 pg/mL
IL-13 cytokine concentration ([3]; HaCaT stimulated with PBS): 0 pg/mL
IL-17 cytokine concentration ([3]; HaCaT stimulated with PBS): 0 pg/mL
IL-22 cytokine concentration ([3]; HaCaT stimulated with PBS): 0 pg/mL
TNF-α cytokine concentration ([3]; HaCaT stimulated with PBS): 0 pg/mL
IFN-γ cytokine concentration [3, 10]: 0 pg/mL
IL-1 cytokine concentration [3, 10]: 0 pg/mL
IL-2 cytokine concentration [3, 10]: 0 pg/mL
IL-4 cytokine concentration [3, 10]: 91.48 pg/mL
IL-5 cytokine concentration [3, 10]: 0 pg/mL
IL-6 cytokine concentration [3, 10]: 124.98 pg/mL
IL-9 cytokine concentration [3, 10]: 0 pg/mL
IL-10 cytokine concentration [3, 10]: 54.10 pg/mL
IL-12 cytokine concentration [3, 10]: 0 pg/mL
IL-13 cytokine concentration [3, 10]: 0 pg/mL
IL-17 cytokine concentration [3, 10]: 0 pg/mL
IL-22 cytokine concentration [3, 10]: 0 pg/mL
TNF-α cytokine concentration [3, 10]: 0 pg/mL
